# Measurements as given in PMC11187542, “Identification of fragments targeting SMYD3 using highly sensitive kinetic and multiplexed biosensor-based screening” (RSC Medicinal Chemistry, 2024).
# “And” between values parts separate entries of the source, which are not always exact repeats. Equal values may be shown once.
# Biological target: T1, SMYD3 (Homo sapiens, UniProt Q9H7B4)
# T1 construct: Full length recombinant SMYD3 was produced as previously reported; made in house; host or cells: E. coli BL21(DE3), in some cases Rosetta 2
# T1 sequence (Q9H7B4 1-428): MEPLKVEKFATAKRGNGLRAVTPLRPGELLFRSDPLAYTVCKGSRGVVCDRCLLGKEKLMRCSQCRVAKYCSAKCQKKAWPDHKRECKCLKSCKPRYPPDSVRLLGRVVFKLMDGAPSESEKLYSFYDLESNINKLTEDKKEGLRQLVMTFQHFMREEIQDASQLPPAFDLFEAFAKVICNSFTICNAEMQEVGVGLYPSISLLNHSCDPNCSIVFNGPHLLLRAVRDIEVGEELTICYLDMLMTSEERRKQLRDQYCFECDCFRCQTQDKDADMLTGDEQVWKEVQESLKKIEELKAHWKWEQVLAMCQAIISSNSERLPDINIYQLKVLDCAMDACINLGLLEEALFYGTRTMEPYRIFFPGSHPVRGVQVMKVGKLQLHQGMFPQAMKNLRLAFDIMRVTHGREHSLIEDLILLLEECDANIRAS
# Test: X-ray crystallography of SMYD3-fragment complexes (co-crystallization and soaking)
# Design: key to XRC: success or failure of crystallization in complex with SMYD3: The success (+) or failure (−) of crystallization in complex with SMYD3; The success (+) or failure (−) of crystallization in complex with SMYD3
# Source text: To identify binding sites and binding modes, the fragment hits (Table 1) were used in both co-crystallization and soaking experiments to obtain SMYD3-fragment co-crystals for X-ray crystallographic analyses. Diffraction data of 1.6–1.9 Å maximum resolution were obtained for four fragments (Fig. 5). For data collection and refinement statistics, see ESI, ^† Table S1.
# Four new sites were thus identified.
# Polder (F0–Fc) maps (Fig. 5, right) were generated to establish whether the observed electron density features were more likely to represent background noise or to belong to bound fragments. These omit maps are generated upon exclusion of the ligand and surrounding solvent from the model, which aids in visualizing weak densities. […] For fragments FL01507, FL08580 and FL08619, a comparison of the maps obtained after refinement with a bound fragment with maps obtained upon their replacement with either glycerol or acetate, which were present in the crystallization or cryo-protectant solutions, respectively, was required.
# 8 mg mL^−1 of SMYD3 in storage buffer (TBS buffer containing 2 mM DTT) was pre-incubated for 4–8 hours with 5 mM of a respective fragment hit compound and 10% (v/v) DMSO. Subsequently, 1 μL of this solution was mixed with an equal volume of reservoir solution (100 mM Tris, 100 mM magnesium acetate, 15–17% PEG3350, pH 8.25–8.75) to create the drops for co-crystallization by hanging drop vapour diffusion performed at 20 °C. Needle-like co-crystals nucleated within 12 h of equilibration against the reservoir. In addition, crystals of SMYD3 obtained in ligand-free crystallization setups were soaked with fragment solution prior to freezing. All crystals were cryo-protected via brief immersion in reservoir solution supplemented with 10% (v/v) glycerol.
# Diffraction data were collected at beamline ID23-1 of the European Synchrotron Radiation Facility (ESRF, Grenoble, France). Data were indexed, auto-processed, scaled and merged on-site using the implemented data processing routines and software. Fragment-associated electron density features were identified upon data analysis with the Pipedream system (version 1.4.0, Global Phasing Ltd, Cambridge, United Kingdom), which includes data processing with autoPROC,[14] molecular replacement with Phaser,[15] structure refinement with BUSTER version 2.10.4 (Global Phasing Ltd, Cambridge, United Kingdom), automated ligand fitting with Rhofit (Global Phasing Ltd, Cambridge, United Kingdom) and BUSTER post-refinement.[16] Refinement was done with Phenix,[17] and model building with Coot.[18] (F0–Fc) difference density maps for models, from which ligand atoms and surrounding water molecules were removed, were generated using Phenix.
compound,measurement,setting,value
Cn1cnc(S(N)(=O)=O)c1 [FL06268],XRC: success or failure of crystallization in complex with SMYD3,5 mM fragment co-crystallization or soaking,(+)
same,Site (binding site in SMYD3 crystal structure),"four sites defined (1–4, Fig. 6) plus active site",both the active site (green surface) and site 2 and 2 + active
